Counter-ions that a name gives are not always drawn. Like-named read-outs stand apart in the source and are kept apart here.
Assays:
[1] = Anti-HCMV cytopathogenicity test: cytostatic effect on NHDF cells; type: cell-based; conditions: human, human prepuce fibroblasts (NHDF cells), 6 days incubation, visual assessment
Method: (§1) Anti-HCMV (Anti-Human Cytomegalovirus) Cytopathogenicity Tests
(§2) The test compounds are employed as 50 millimolar (mM) solutions in dimethyl sulphoxide (DMSO). Ganciclovir®, Foscarnet® and Cidofovir® are used as reference compounds. After addition of in each case 2 μl of the 50, 5, 0.5 and 0.05 mM DMSO stock solutions to 98 μl portions of cell culture medium in row 2 A-H for duplicate determinations, 1:2 dilutions are carried out with 50 μl portions of medium up to row 11 of the 96-well plate. The wells in rows 1 and 12 each contain 50 μl of medium. 150 μl of a suspension of 1×10^4 cells (human prepuce fibroblasts [NHDF]) are then pipetted into each of the wells (row 1=cell control) and, in rows 2-12, a mixture of HCMV-infected and uninfected NHDF cells (M.O.I.=0.001−0.002), i.e. 1-2 infected cells per 1000 uninfected cells. Row 12 (without substance) serves as virus control. The final test concentrations are 250-0.0005 μM. The plates are incubated at 37° C./5% CO2 for 6 days, i.e. until all the cells are infected in the virus controls (100% cytopathogenic effect [CPE]). The wells are then fixed and stained by adding a mixture of formalin and Giemsa's dye (30 minutes), washed with double-distilled water and dried in a drying oven at 50° C. The plates are then assessed visually using an overhead microscope (plaque multiplier from Technomara).
(§3) The following data can be acquired from the test plates:
CC50 (NHDF)=substance concentration in μM at which no visible cytostatic effects on the cells are evident by comparison with the untreated cell control;

[2] = test system: HCMV (human cytomegalovirus); assay: Anti-HCMV cytopathogenicity test: inhibition of CPE; type: cell-based; conditions: for EC50: read-out: HCMV EC50
Method: as §1, §2, §3
EC50 (HCMV)=substance concentration in μM which inhibits the CPE (cytopathic effect) by 50% compared with the untreated virus control;
SI (selectivity index)=CC50 (NHDF)/EC50 (HCMV).

[3] = Human betaherpesvirus 5, 144 h, HCMV-infected NHDF cells, M.O.I. 0.001-0.002, 6 days, inhibition of CPE by 50%

## COc1cccc(N2CCN(C3=Nc4cnccc4C(CC(=O)O)N3c3cccc(C(F)(F)F)c3)CC2)c1 (stereo not drawn) [Example 4, {2-[4-(3-Methoxyphenyl)piperazin-1-yl]-3-[3-(trifluoromethyl)phenyl]-3,4-dihydropyrido[3,4-d]-pyrimidin-4-yl}acetic acid hydrochloride]
[1]
  CC50 at 6 days: 94 µM
[2]
  SI HCMV (selectivity index = CC50 (NHDF)/EC50 (HCMV)): 470
[2]; Human betaherpesvirus 5, NHDF, 144 h
  EC50: 0.2 µM

## COc1ccc(C)cc1N1C(N2CCN(c3ccc(F)cc3)CC2)=Nc2ccncc2C1CC(=O)O (stereo not drawn) [Example 8, [2-[4-(4-Fluorophenyl)piperazin-1-yl]-3-(2-methoxy-5-methylphenyl)-3,4-dihydropyrido[4,3-d]-pyrimidin-4-yl] acetic acid]
[1]
  CC50 at 6 days: 250 µM
[2]
  SI HCMV (selectivity index = CC50 (NHDF)/EC50 (HCMV)): 1786
[2]; [3]
  EC50: 0.14 µM

## COc1ccc(C(F)(F)F)cc1N1C(N2CCN(c3ccc(F)cc3)CC2)=Nc2ccncc2C1CC(=O)O (stereo not drawn) [Example 9, {2-[4-(4-Fluorophenyl)piperazin-1-yl]-3-[2-methoxy-5-(trifluoromethyl)phenyl]-3,4-dihydro-pyrido[4,3-d]pyrimidin-4-yl}acetic acid]
[1]
  CC50 at 6 days: 94 µM
[2]
  SI HCMV (selectivity index = CC50 (NHDF)/EC50 (HCMV)): 1880
[2]; [3]
  EC50: 0.05 µM
